Literature values as cited in article PMC11322901 (Chemical Science, 2024).

Columns and labels:
GST = conditions: read-out: Ki of monovalent EA inhibitor
CaM(Ca2+) = CaM(Ca2+) (Mus musculus, UniProt P0DP26)

Molecule | Ki (GST) [nM] | Affinity for CaM(Ca2+) (CaM(Ca2+))
C=C(CC)C(=O)c1ccc(OCC(=O)O)c(Cl)c1Cl [EA] | 1000 to 5000 | –
mastoparan | – | low nanomolar
